Measured values from paper PMC6162302, “A modified serine cycle in Escherichia coli coverts methanol and CO2 to two-carbon compounds” (Nature Communications, 2018).

Target: T1, Medh(CT4–1), variant of Mdh2 (Cupriavidus necator, UniProt F8GNE5)
T1 construct: engineered variant CT4-1 of Mdh2, N-terminal His-tag, expressed in E. coli BL21(DE3), His-Spin column purified
T1 sequence (F8GNE5 1-390): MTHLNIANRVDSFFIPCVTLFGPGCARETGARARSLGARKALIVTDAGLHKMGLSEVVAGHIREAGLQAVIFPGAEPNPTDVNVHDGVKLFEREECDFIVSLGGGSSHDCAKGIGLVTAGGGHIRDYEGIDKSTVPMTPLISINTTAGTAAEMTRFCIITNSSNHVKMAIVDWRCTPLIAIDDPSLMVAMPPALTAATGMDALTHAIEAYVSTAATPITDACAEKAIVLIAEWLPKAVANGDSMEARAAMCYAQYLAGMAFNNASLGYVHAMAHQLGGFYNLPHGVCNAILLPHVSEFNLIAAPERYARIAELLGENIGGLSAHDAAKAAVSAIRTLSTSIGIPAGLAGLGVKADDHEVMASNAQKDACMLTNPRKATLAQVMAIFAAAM
Test: NADH formation at […] nm
Type: biochemical
Conditions: 500 mM methanol, 5 mM MgCl2, 100 mM NaHCO3 pH 9.5, 37 °C

NC(=O)c1ccc[n+]([C@@H]2O[C@H](COP(=O)(O)OP(=O)(O)OC[C@H]3O[C@@H](n4cnc5c(N)ncnc54)[C@H](O)[C@@H]3O)[C@@H](O)[C@H]2O)c1 [NAD]
NADH formation at 340 nm: oxidation of methanol to formaldehyde with the formation of NADH
